The experiment deals with Integrin alpha-V/beta-6 (Homo sapiens, UniProt P06756+P18564). Description: Inhibition of recombinant human alphavbeta6 integrin incubated for 2 hrs by microplate reader assay. It is filed as protein-complex assay.

The structures appear in SMILES notation. pIC50: −log10 of the molar value.

Broadly, the pIC50 is the negative decadic logarithm of the IC50, by convention in mol/L.

Integrin alpha-V/beta-6, sequence (P06756 31-889 limits assumed): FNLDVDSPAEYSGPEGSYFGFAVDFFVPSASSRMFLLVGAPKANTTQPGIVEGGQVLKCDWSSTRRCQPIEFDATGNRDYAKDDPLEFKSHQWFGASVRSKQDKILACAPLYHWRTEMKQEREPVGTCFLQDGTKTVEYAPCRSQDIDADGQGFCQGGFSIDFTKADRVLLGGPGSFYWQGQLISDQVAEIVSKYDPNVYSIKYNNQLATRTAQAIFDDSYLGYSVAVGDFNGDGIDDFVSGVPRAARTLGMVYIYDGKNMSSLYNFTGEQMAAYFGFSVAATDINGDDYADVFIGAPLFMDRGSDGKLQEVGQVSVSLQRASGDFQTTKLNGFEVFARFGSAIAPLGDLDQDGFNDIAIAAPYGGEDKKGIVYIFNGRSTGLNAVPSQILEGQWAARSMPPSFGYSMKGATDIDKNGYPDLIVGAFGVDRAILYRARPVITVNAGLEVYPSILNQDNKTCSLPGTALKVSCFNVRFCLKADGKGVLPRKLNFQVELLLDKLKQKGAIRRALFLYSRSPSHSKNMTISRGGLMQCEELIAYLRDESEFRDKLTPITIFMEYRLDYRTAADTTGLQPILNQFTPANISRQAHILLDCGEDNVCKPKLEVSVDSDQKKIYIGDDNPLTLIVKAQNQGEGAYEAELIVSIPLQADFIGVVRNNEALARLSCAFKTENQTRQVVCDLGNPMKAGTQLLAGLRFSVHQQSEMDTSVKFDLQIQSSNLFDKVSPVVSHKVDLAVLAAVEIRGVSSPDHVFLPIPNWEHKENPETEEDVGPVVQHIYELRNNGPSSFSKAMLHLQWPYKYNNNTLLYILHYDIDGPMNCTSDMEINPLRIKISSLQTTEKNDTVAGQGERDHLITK
Integrin alpha-V/beta-6, sequence (P06756 891-1048 limits assumed): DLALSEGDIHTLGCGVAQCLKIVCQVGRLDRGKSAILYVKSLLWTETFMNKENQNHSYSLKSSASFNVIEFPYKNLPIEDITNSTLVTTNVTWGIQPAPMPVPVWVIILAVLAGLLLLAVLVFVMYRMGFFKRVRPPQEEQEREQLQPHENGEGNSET
Integrin alpha-V/beta-6, sequence (P18564 22-788 limits assumed): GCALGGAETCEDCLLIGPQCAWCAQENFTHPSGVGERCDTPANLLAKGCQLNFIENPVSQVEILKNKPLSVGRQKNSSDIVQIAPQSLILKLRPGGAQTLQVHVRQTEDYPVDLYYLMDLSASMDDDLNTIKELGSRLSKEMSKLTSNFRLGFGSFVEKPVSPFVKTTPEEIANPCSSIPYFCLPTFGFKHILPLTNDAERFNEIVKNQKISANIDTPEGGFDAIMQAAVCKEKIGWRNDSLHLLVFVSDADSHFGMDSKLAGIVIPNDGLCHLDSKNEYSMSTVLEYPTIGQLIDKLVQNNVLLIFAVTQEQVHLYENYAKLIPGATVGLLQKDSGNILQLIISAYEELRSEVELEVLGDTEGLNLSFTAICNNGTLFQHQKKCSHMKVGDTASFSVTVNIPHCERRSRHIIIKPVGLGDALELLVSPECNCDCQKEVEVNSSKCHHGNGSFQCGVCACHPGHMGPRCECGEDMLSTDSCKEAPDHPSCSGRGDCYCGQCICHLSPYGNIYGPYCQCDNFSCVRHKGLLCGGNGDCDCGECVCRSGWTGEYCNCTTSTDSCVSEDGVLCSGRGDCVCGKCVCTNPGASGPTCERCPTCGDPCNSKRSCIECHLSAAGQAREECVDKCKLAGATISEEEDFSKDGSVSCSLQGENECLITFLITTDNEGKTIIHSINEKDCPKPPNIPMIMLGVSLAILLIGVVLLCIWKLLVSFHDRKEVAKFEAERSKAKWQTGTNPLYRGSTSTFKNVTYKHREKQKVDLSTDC

As to `O=C(O)[C@H](CCN(CCCCc1ccc2c(n1)NCCC2)CCC(F)F)Nc1ncnc2ccccc12`, the pIC50 was over 7.30.

On to `CO[C@H](C)CN(CCCCc1ccc2c(n1)NCCC2)CC[C@H](Nc1ncnc2ccccc12)C(=O)O`, for which the pIC50 was over 7.30.

In the case of `COCCN(CCCCc1ccc2c(n1)NCCC2)CC[C@H](Nc1cc(-n2cccn2)ncn1)C(=O)O`, the pIC50 was over 7.30.

On to `COCCN(CCCCc1ccc2c(n1)NCCC2)CC[C@H](Nc1ncnc2cc(C(F)(F)F)ccc12)C(=O)O`, for which the pIC50 is 7.30.

On to `COCCN(CCCCc1ccc2c(n1)NCCC2)CC[C@H](Nc1ncnc2cc(F)ccc12)C(=O)O`, for which the pIC50 was over 7.30.

Take `COCCN(CCCCc1ccc2c(n1)NCCC2)CC[C@H](Nc1ncnc2ccccc12)C(=O)O` [BEXOTEGRAST]: the pIC50 was over 7.30.

These data come from ChEMBL document CHEMBL5120957, “SARS-CoV-2: Novel Therapeutic Approaches for Diagnosis and Treatment” (ACS Med Chem Lett, 2022).
